Laboratory results from publication doi:10.64898/2025.12.30.696991 (bioRxiv, 2026).

System: intracellular MDR S. Typhimurium (ATCC 700408)
Assay: Intracellular gentamicin protection assay, MDR S. Typhimurium in RAW 264.7 macrophages
Format: cell-based, Salmonella enterica serovar Typhimurium
Conditions: Salmonella enterica, RAW264.7, Table 2; intracellular burden 50% in RAW 264.7
Procedure: (§1) RAW 264.7 cells were seeded at 3×10^4 cells/well in a 96-well plate and maintained at 37°C for 20 hours. A single colony of susceptible or MDR S. Typhimurium was inoculated and cultured overnight in nutrient broth and diluted to obtain a log-phase culture stock with an adjusted optical density (OD600) of 0.6, equivalent to a concentration of 3×10^8 CFU/mL (determined by a prior colony forming units (CFU) assay). The bacterial stock solution was resuspended in antibiotic-free DMEM supplemented with 2% FBS and further diluted to obtain a bacterial concentration of 3×10^6 CFU/mL. Cell media was aspirated and replaced with 100 μL of bacteria culture in DMEM resulting in a multiplicity of infection (MOI) of 10. The cells underwent infection for two hours or 30 minutes at 37°C with susceptible or MDR bacteria, respectively. This differential infection incubation period was based on strain-specific infectivity potential. […] Media was aspirated from the wells and replaced with DMEM (2% FBS) containing 100 μg/mL gentamicin for one hour at 37°C to eliminate extracellular bacteria. Following this step, cells were washed once with media and treated for 22 hours with analogs at varying concentrations (0.1 – 5 μM) in DMEM (2% FBS, no pen/strep) containing 10 μg/mL gentamicin to suppress extracellular bacterial growth. AR-12 treated, uninfected, and DMSO-vehicle treated cells were included as controls. Post treatment, cells were washed with PBS and lysed with 0.1% Triton-X100, a concentration sufficient to disrupt host cells while preserving bacterial integrity. The lysates containing intracellular bacteria were serially diluted and enumerated by using drop-plate assay as described previously.([27]) Agar plates were incubated overnight at 37°C before CFU from each dilution were counted.
Supplemental Figure 2: Evaluating lead compound efficacy against MDR S. Typhimurium. A) Schematic illustrating gentamicin protection assay. Day 0 RAW 264.7 macrophages are seeded into 96-well plate and STM culture is inoculated. Day 1: RAW 264.7 cells are infected with STM at an MOI of 10 for 30 min, washed, then treated with gentamicin for 1hr to remove extracellular bacteria. AR-12 analogs added to infected cells for 22hr incubation. Day 2: RAWs are washed, lysed, diluted and then dropped onto agar plates. Day 3: colony forming units (CFUs) counted. B) Dose effect curves of intracellular MDR S. Typhimurium viability from RAW 264.7 macrophages after 22hr treatment with hit compounds. CFUs normalized to untreated controls. Parental compound AR-12 included for comparison.

IC50 [nM]	SMILES
170	Fc1cccc(CN2CCC(Oc3ccc(-n4nc(C(F)(F)F)cc4C4CCCCC4)cc3)CC2)c1 [Compound 372]
~130	N#Cc1ccc(CN2CCC(Oc3ccc(-n4nc(C(F)(F)F)cc4C4CCCCC4)cc3)CC2)cc1 [Compound 373]
180	FC(F)(F)c1cc(C2CCCCC2)n(-c2ccc(OC3CCN(Cc4ccccc4)C3)cc2)n1 (stereo not drawn) [Compound 378]
140	FC(F)(F)c1cc(C2CCCCC2)n(-c2ccc(NC3CCN(Cc4ccccc4)CC3)cc2)n1 [Compound 381]

Same assay, conditions: Table 2; LC50 / IC50

SMILES	MDR Selectivity
FC(F)(F)c1cc(C2CCCCC2)n(-c2ccc(NC3CCN(Cc4ccccc4)CC3)cc2)n1 [Compound 381]	211

System: intracellular susceptible S. Typhimurium (ATCC 700720)
Assay: Intracellular gentamicin protection assay, susceptible S. Typhimurium in RAW 264.7 macrophages
Format: cell-based, Salmonella enterica serovar Typhimurium
Conditions: not given
Procedure: as §1

SMILES	improvement in selectivity over AR-12
FC(F)(F)c1cc(C2CCCCC2)n(-c2ccc(OC3CCN(Cc4ccccc4)C3)cc2)n1 (stereo not drawn) [Compound 378]	approximately 100 fold

Same assay, conditions: LC50 / IC50, strain not specified

SMILES	selectivity (selectivity indices)
Fc1cccc(CN2CCC(Oc3ccc(-n4nc(C(F)(F)F)cc4C4CCCCC4)cc3)CC2)c1 [Compound 372]	> 2000
N#Cc1ccc(CN2CCC(Oc3ccc(-n4nc(C(F)(F)F)cc4C4CCCCC4)cc3)CC2)cc1 [Compound 373]	> 2000

Same assay, conditions: Salmonella enterica, RAW264.7, 22 h, Table 1; concentration at which intracellular susceptible S. Typhimurium burden is 50% in RAW 264.7 macrophages; 22 h treatment; read-out: IC50

IC50 [nM]	SMILES
130	Fc1cccc(CN2CCC(Oc3ccc(-n4nc(C(F)(F)F)cc4C4CCCCC4)cc3)CC2)c1 [Compound 372]
130	N#Cc1ccc(CN2CCC(Oc3ccc(-n4nc(C(F)(F)F)cc4C4CCCCC4)cc3)CC2)cc1 [Compound 373]
310	FC(F)(F)c1cc(C2CCCCC2)n(-c2ccc(OC3CCN(Cc4ccccc4)C3)cc2)n1 (stereo not drawn) [Compound 378]
110	FC(F)(F)c1cc(C2CCCCC2)n(-c2ccc(NC3CCN(Cc4ccccc4)CC3)cc2)n1 [Compound 381]

Same assay, conditions: Salmonella enterica, RAW264.7, Table 2; intracellular burden 50% in RAW 264.7; read-out: Susc. IC50

IC50 [nM]	SMILES
~130	Fc1cccc(CN2CCC(Oc3ccc(-n4nc(C(F)(F)F)cc4C4CCCCC4)cc3)CC2)c1 [Compound 372]
~130	N#Cc1ccc(CN2CCC(Oc3ccc(-n4nc(C(F)(F)F)cc4C4CCCCC4)cc3)CC2)cc1 [Compound 373]
310	FC(F)(F)c1cc(C2CCCCC2)n(-c2ccc(OC3CCN(Cc4ccccc4)C3)cc2)n1 (stereo not drawn) [Compound 378]
110	FC(F)(F)c1cc(C2CCCCC2)n(-c2ccc(NC3CCN(Cc4ccccc4)CC3)cc2)n1 [Compound 381]

Same assay, conditions: Table 1; LC50 / IC50, susceptible S. Typhimurium

SMILES	Selectivity
Fc1cccc(CN2CCC(Oc3ccc(-n4nc(C(F)(F)F)cc4C4CCCCC4)cc3)CC2)c1 [Compound 372]	>769
N#Cc1ccc(CN2CCC(Oc3ccc(-n4nc(C(F)(F)F)cc4C4CCCCC4)cc3)CC2)cc1 [Compound 373]	>769
FC(F)(F)c1cc(C2CCCCC2)n(-c2ccc(OC3CCN(Cc4ccccc4)C3)cc2)n1 (stereo not drawn) [Compound 378]	>322
FC(F)(F)c1cc(C2CCCCC2)n(-c2ccc(NC3CCN(Cc4ccccc4)CC3)cc2)n1 [Compound 381]	260

System: planktonic susceptible S. Typhimurium (ATCC 700720)
Assay: Direct effect on planktonic susceptible bacteria (optical density 600 nm)
Format: cell-based, Salmonella enterica serovar Typhimurium
Conditions: Salmonella enterica; Table 1; planktonic susceptible S. Typhimurium viability 50% by optical density, 22 hr; read-out: MIC50
Procedure: (§2) A single colony of susceptible or MDR bacteria was inoculated into nutrient broth and incubated overnight at 37°C in an orbital shaker set at 200 rpm. The overnight culture was sub-cultured (1:100) in fresh medium to obtain log-phase bacterial growth after an additional 3 hr incubation at 37°C and further adjusted to obtain a bacterial stock solution with an absorbance value of 0.6 at 600 nm, equivalent to a concentration of 3×10^8 CFU/mL. The bacterial stock was diluted with nutrient broth to obtain 3×10^4 CFU/well in a 96 well plate. Next, 10 μL of each analog were added to yield a total volume of 100 μL /well with a final concentration of 20 μM. Drug-free and bacteria-free wells were used as controls. The plate was incubated at 37°C for 22 hr. Percent bacterial viability was determined using optical density measurements at 600 nm, subtracting out bacteria free absorbance (background) and normalizing to a DMSO vehicle control. Bacterial viability was plotted against increasing drug concentration to obtain the 50% minimum inhibitory concentration (MIC50), defined as the drug concentration resulting in 50% bacterial viability.

MIC50 [µM]	SMILES
> 20	Fc1cccc(CN2CCC(Oc3ccc(-n4nc(C(F)(F)F)cc4C4CCCCC4)cc3)CC2)c1 [Compound 372]
> 20	N#Cc1ccc(CN2CCC(Oc3ccc(-n4nc(C(F)(F)F)cc4C4CCCCC4)cc3)CC2)cc1 [Compound 373]
> 20	FC(F)(F)c1cc(C2CCCCC2)n(-c2ccc(OC3CCN(Cc4ccccc4)C3)cc2)n1 (stereo not drawn) [Compound 378]
> 20	FC(F)(F)c1cc(C2CCCCC2)n(-c2ccc(NC3CCN(Cc4ccccc4)CC3)cc2)n1 [Compound 381]

Same assay, conditions: Salmonella enterica; Table 2; planktonic Salmonella, OD 600 nm; read-out: Susc. MIC50

MIC50 [µM]	SMILES
> 20	Fc1cccc(CN2CCC(Oc3ccc(-n4nc(C(F)(F)F)cc4C4CCCCC4)cc3)CC2)c1 [Compound 372]
> 20	N#Cc1ccc(CN2CCC(Oc3ccc(-n4nc(C(F)(F)F)cc4C4CCCCC4)cc3)CC2)cc1 [Compound 373]
> 20	FC(F)(F)c1cc(C2CCCCC2)n(-c2ccc(OC3CCN(Cc4ccccc4)C3)cc2)n1 (stereo not drawn) [Compound 378]
> 20	FC(F)(F)c1cc(C2CCCCC2)n(-c2ccc(NC3CCN(Cc4ccccc4)CC3)cc2)n1 [Compound 381]

System: not listed separately
Assay: in vitro
Format: cell-based
Conditions: mouse, LC50
Procedure: Cell proliferation and viability in the presence of the analogs was tested in the macrophage cell line RAW 264.7 using a 3-(4,5-dimethylthiazol-2-yl)-2,5-diphenyl-2H-tetrazolium bromide (MTT) assay. Cells were seeded at 3×10^4 cells/well in 96 well plates in DMEM (10% FBS, 1% pen/strep). […] DMSO vehicle was utilized as a control, as all the drugs were reconstituted from DMSO stocks. After 24 hr treatment, media was replaced with 100 μL of 0.6 mg/mL MTT solution and the cells were incubated at 37°C until formazan crystals formed. The MTT solution was then replaced with 100 μL of isopropanol, to dissolve the formazan crystals. Cell viability was determined by measuring absorbance at 560 nm of drug treated cells normalized to DMSO vehicle controls. The absorbance at 670 nm was used as a background correction. Cell viability was plotted against increasing drug concentration to obtain the 50% lethal concentration (LC50), defined as the drug concentration resulting in 50% cell viability.

SMILES	CC50 at 24 h [nM]
FC(F)(F)c1cc(C2CCCCC2)n(-c2ccc(NC3CCN(Cc4ccccc4)CC3)cc2)n1 [Compound 381]	28600

System: planktonic MDR S. Typhimurium (ATCC 700408)
Assay: Direct effect on planktonic MDR bacteria (optical density 600 nm)
Format: cell-based, Salmonella enterica serovar Typhimurium
Conditions: Salmonella enterica, Table 2, OD 600 nm
Procedure: as §2

MIC50 [µM]	SMILES
> 20	Fc1cccc(CN2CCC(Oc3ccc(-n4nc(C(F)(F)F)cc4C4CCCCC4)cc3)CC2)c1 [Compound 372]
> 20	N#Cc1ccc(CN2CCC(Oc3ccc(-n4nc(C(F)(F)F)cc4C4CCCCC4)cc3)CC2)cc1 [Compound 373]
> 20	FC(F)(F)c1cc(C2CCCCC2)n(-c2ccc(OC3CCN(Cc4ccccc4)C3)cc2)n1 (stereo not drawn) [Compound 378]
> 20	FC(F)(F)c1cc(C2CCCCC2)n(-c2ccc(NC3CCN(Cc4ccccc4)CC3)cc2)n1 [Compound 381]
